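Values below derive from 48-hour exposures of cells grown in 96-well plates, with endpoints linearly interpolated between the two concentrations bracketing the appropriate inhibition level. GI50 marks 50% less growth. At the TGI there is no net growth.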

Test systems include LOX IMVI melanoma; MDA-MB-231 breast; OVCAR-5 ovarian; UACC-257 melanoma; SK-OV-3 ovarian; RPMI-8226 leukemia; HCT-15 colon; SF-539 CNS; SNB-19 CNS; UO-31 renal; COLO 205 colon; RXF 393 renal; TK-10 renal; HL-60(TB) leukemia; SR leukemia; MCF7 breast.
Test in all cases: NCI tumour cell line growth inhibition, 48 h

For the compound `COc1ccc(-c2[nH]c(-c3ccc(OC)cc3)c(-c3ccccn3)c2-c2ccccn2)cc1`, the TGI is 65.5 µM with LOX IMVI melanoma; greater than 100 µM in the experiment with MDA-MB-231 breast; greater than 100 µM in the experiment with OVCAR-5 ovarian; greater than 100 µM in the experiment with UACC-257 melanoma; greater than 100 µM with SK-OV-3 ovarian; 69.5 µM in the experiment with RPMI-8226 leukemia. Moreover, the TGI in the experiment with HCT-15 colon is greater than 100 µM; in the experiment on SF-539 CNS, greater than 100 µM; in the experiment with SNB-19 CNS it was greater than 100 µM; with UO-31 renal, greater than 100 µM; in the experiment with COLO 205 colon, 61.1 µM; in the experiment with RXF 393 renal it was greater than 100 µM. In addition, the TGI in the experiment with TK-10 renal, in the experiment on HL-60(TB) leukemia, in the experiment with SR leukemia and with MCF7 breast was greater than 100 µM throughout.

On to `O=c1sc(Nc2ccc3ccccc3c2Cl)nc2ccccc12`, for which the TGI in the experiment on LOX IMVI melanoma, in the experiment on MDA-MB-231 breast, in the experiment on OVCAR-5 ovarian, in the experiment with UACC-257 melanoma, in the experiment with SK-OV-3 ovarian and in the experiment with RPMI-8226 leukemia was greater than 100 µM in each case. Further, the TGI with HCT-15 colon, in the experiment with SF-539 CNS, in the experiment on SNB-19 CNS, with UO-31 renal, with COLO 205 colon and in the experiment on RXF 393 renal was greater than 100 µM each time. The TGI in the experiment on TK-10 renal, with HL-60(TB) leukemia, with SR leukemia and in the experiment on MCF7 breast was greater than 100 µM each time.

With `CCOC(=O)c1cc(C2=CCNC2=O)c(-c2cc(C)no2)[nH]1`, the TGI with LOX IMVI melanoma, in the experiment on MDA-MB-231 breast, in the experiment with OVCAR-5 ovarian, in the experiment with UACC-257 melanoma, in the experiment with SK-OV-3 ovarian and in the experiment with RPMI-8226 leukemia was greater than 100 µM throughout. The TGI with HCT-15 colon, in the experiment on SF-539 CNS, in the experiment with SNB-19 CNS, in the experiment on UO-31 renal, in the experiment on COLO 205 colon and in the experiment with RXF 393 renal was greater than 100 µM in each case. Also, the TGI with TK-10 renal was greater than 100 µM; in the experiment on HL-60(TB) leukemia it was 56.8 µM; in the experiment with SR leukemia, greater than 100 µM; in the experiment on MCF7 breast it was greater than 100 µM.

In the case of `O=C(/C=C\c1ccsc1)c1ccccc1`, the TGI in the experiment on LOX IMVI melanoma was determined as 7.58 µM; with MDA-MB-231 breast, 18.5 µM; with OVCAR-5 ovarian, 32.4 µM; in the experiment on UACC-257 melanoma it was 34.8 µM; in the experiment with SK-OV-3 ovarian, 30.8 µM; in the experiment with RPMI-8226 leukemia, 7.32 µM. Further, the TGI was found to be 14.6 µM with HCT-15 colon; 24.2 µM in the experiment on SF-539 CNS; 25.9 µM in the experiment with SNB-19 CNS; 19.2 µM with UO-31 renal; 30.5 µM with COLO 205 colon; 18.7 µM with RXF 393 renal. Besides, the TGI was 29.3 µM in the experiment on TK-10 renal, 4.16 µM in the experiment with HL-60(TB) leukemia, greater than 21.7 µM in the experiment on SR leukemia and 6.72 µM in the experiment on MCF7 breast.

In the case of `Clc1cc2nc(C3CCCCO3)[nH]c2cc1Cl` (stereo not drawn), the TGI with LOX IMVI melanoma was greater than 100 µM; with MDA-MB-231 breast, greater than 100 µM; with OVCAR-5 ovarian it was greater than 100 µM; in the experiment on UACC-257 melanoma it was greater than 100 µM; in the experiment on SK-OV-3 ovarian it was greater than 100 µM; with RPMI-8226 leukemia, greater than 73.4 µM. For the same compound, the TGI with HCT-15 colon was greater than 100 µM; in the experiment with SF-539 CNS it was 97 µM; in the experiment with SNB-19 CNS, greater than 100 µM; in the experiment with UO-31 renal, greater than 53.3 µM; in the experiment with COLO 205 colon, greater than 100 µM; in the experiment on RXF 393 renal, greater than 52.6 µM. Moreover, the TGI was greater than 100 µM with TK-10 renal, greater than 53.5 µM in the experiment with HL-60(TB) leukemia, greater than 100 µM with SR leukemia and 36.5 µM with MCF7 breast.

As to `O=C1C(Cl)=C(N2CCN(CCOCCO)CC2)C(=O)c2ccccc21`, the TGI with LOX IMVI melanoma is 17.7 µM; in the experiment on MDA-MB-231 breast, 17.9 µM; in the experiment on OVCAR-5 ovarian, 37.4 µM; in the experiment with UACC-257 melanoma it was 15.7 µM; with SK-OV-3 ovarian, 28.9 µM; with RPMI-8226 leukemia it was greater than 26.9 µM. The TGI with HCT-15 colon was 24.4 µM; with SF-539 CNS it was 33.1 µM; in the experiment on SNB-19 CNS it was greater than 56.3 µM; in the experiment with UO-31 renal, 21.2 µM; in the experiment on COLO 205 colon it was 28.7 µM; with RXF 393 renal, 8.91 µM. For the same compound, the TGI in the experiment on TK-10 renal stood at 34.7 µM; in the experiment with HL-60(TB) leukemia, 14 µM; in the experiment with SR leukemia, 8.51 µM; in the experiment with MCF7 breast, 14.4 µM.

On to `CC(=O)Nc1ncc2c(n1)-c1ccccc1OC2c1ccccc1` (stereo not drawn), for which the TGI is greater than 100 µM with LOX IMVI melanoma; 75.3 µM in the experiment with MDA-MB-231 breast; greater than 100 µM in the experiment with OVCAR-5 ovarian; greater than 100 µM in the experiment on UACC-257 melanoma; greater than 100 µM in the experiment with SK-OV-3 ovarian; greater than 100 µM in the experiment on RPMI-8226 leukemia. For the same compound, the TGI was greater than 100 µM in the experiment on HCT-15 colon; 35.1 µM in the experiment on SF-539 CNS; 89.6 µM with SNB-19 CNS; greater than 100 µM with UO-31 renal; greater than 100 µM in the experiment on COLO 205 colon; 63.2 µM with RXF 393 renal. The TGI with TK-10 renal is 63.2 µM; in the experiment on HL-60(TB) leukemia it was greater than 100 µM; with SR leukemia, greater than 100 µM; in the experiment on MCF7 breast, greater than 100 µM.

With `C[C@@H](Oc1ccc(Oc2cnc3ccc(Cl)cc3n2)cc1)C(=O)O`, the TGI in the experiment with LOX IMVI melanoma, in the experiment with MDA-MB-231 breast, in the experiment with OVCAR-5 ovarian, with UACC-257 melanoma, in the experiment with SK-OV-3 ovarian and with RPMI-8226 leukemia was greater than 100 µM each time. Besides, the TGI in the experiment with HCT-15 colon, in the experiment on SF-539 CNS, in the experiment with SNB-19 CNS, in the experiment with UO-31 renal, with COLO 205 colon and with RXF 393 renal was greater than 100 µM throughout. The TGI in the experiment on TK-10 renal, in the experiment with HL-60(TB) leukemia, with SR leukemia and with MCF7 breast was greater than 100 µM each time. Besides, the GI50 in the experiment with SF-539 CNS was greater than 87.9 µM; in the experiment with RXF 393 renal, greater than 30.5 µM; in the experiment with SR leukemia, greater than 24.3 µM; with MCF7 breast, 18.3 µM.

As for `Brc1c2c(c(Br)c3nsnc13)N=S=N2`, the TGI with LOX IMVI melanoma was 13.9 µM; with MDA-MB-231 breast it was 60.7 µM; in the experiment with OVCAR-5 ovarian, 64.3 µM; with UACC-257 melanoma it was greater than 100 µM; in the experiment on SK-OV-3 ovarian, greater than 79.7 µM; in the experiment with RPMI-8226 leukemia, 78.1 µM. Further, the TGI in the experiment with HCT-15 colon is 60 µM; in the experiment on SF-539 CNS, 57.6 µM; in the experiment with SNB-19 CNS, greater than 70 µM; with UO-31 renal, 56.7 µM; with COLO 205 colon, greater than 60.1 µM; in the experiment with RXF 393 renal, 35.9 µM. Besides, the TGI with TK-10 renal is 47.3 µM; with HL-60(TB) leukemia, 12.3 µM; in the experiment on SR leukemia it was 14.1 µM; in the experiment on MCF7 breast, greater than 65.6 µM.

Take `CC(C)(C)C(O)CC(O)(C(F)(F)F)C(F)(F)F` (stereo not drawn): the TGI in the experiment with LOX IMVI melanoma, in the experiment on MDA-MB-231 breast, in the experiment with OVCAR-5 ovarian, in the experiment with UACC-257 melanoma, in the experiment on SK-OV-3 ovarian and in the experiment on RPMI-8226 leukemia was greater than 100 µM each time. Further, the TGI in the experiment on HCT-15 colon, with SF-539 CNS, in the experiment on SNB-19 CNS, in the experiment on UO-31 renal, in the experiment with COLO 205 colon and with RXF 393 renal was greater than 100 µM in each case. Further, the TGI in the experiment with TK-10 renal, in the experiment on HL-60(TB) leukemia, in the experiment on SR leukemia and with MCF7 breast was greater than 100 µM each time.

With `COc1ccc(OC)c(N=Cc2cc(OC)c(OC)c(OC)c2)c1`, the TGI was greater than 100 µM in the experiment with LOX IMVI melanoma; greater than 100 µM in the experiment with MDA-MB-231 breast; greater than 100 µM with OVCAR-5 ovarian; greater than 100 µM in the experiment with UACC-257 melanoma; greater than 100 µM in the experiment with SK-OV-3 ovarian; greater than 76.6 µM in the experiment on RPMI-8226 leukemia. In addition, the TGI in the experiment on HCT-15 colon, with SF-539 CNS, in the experiment with SNB-19 CNS, with UO-31 renal, in the experiment with COLO 205 colon and in the experiment on RXF 393 renal was greater than 100 µM each time. The TGI in the experiment on TK-10 renal, in the experiment on HL-60(TB) leukemia, in the experiment on SR leukemia and in the experiment with MCF7 breast was greater than 100 µM throughout.

Take `O=S(=O)(O)c1ccc(Nc2ccnc3ccccc23)cc1`: the TGI with LOX IMVI melanoma, in the experiment on MDA-MB-231 breast, in the experiment with OVCAR-5 ovarian, in the experiment with UACC-257 melanoma, with SK-OV-3 ovarian and in the experiment on RPMI-8226 leukemia was greater than 100 µM throughout. Moreover, the TGI in the experiment with HCT-15 colon, with SF-539 CNS, with SNB-19 CNS, with UO-31 renal, in the experiment on COLO 205 colon and in the experiment with RXF 393 renal was greater than 100 µM throughout. For the same compound, the TGI in the experiment on TK-10 renal, with HL-60(TB) leukemia, with SR leukemia and with MCF7 breast was greater than 100 µM in each case.

Consider `O=C(O)CCNc1ncc2c(n1)-c1ccccc1OC2`, for which the TGI in the experiment on LOX IMVI melanoma, in the experiment with MDA-MB-231 breast, in the experiment with OVCAR-5 ovarian, with UACC-257 melanoma, in the experiment with SK-OV-3 ovarian and in the experiment on RPMI-8226 leukemia was greater than 100 µM throughout. The TGI in the experiment with HCT-15 colon, with SF-539 CNS, in the experiment with SNB-19 CNS, in the experiment on UO-31 renal, in the experiment on COLO 205 colon and in the experiment with RXF 393 renal was greater than 100 µM in each case. Moreover, the TGI in the experiment with TK-10 renal, with HL-60(TB) leukemia, with SR leukemia and in the experiment on MCF7 breast was greater than 100 µM in each case.

Take `COc1cccc(C2c3cc4c(cc3OC(NNC(N)=O)C2C)OCO4)c1O` (stereo not drawn): the TGI with LOX IMVI melanoma is greater than 100 µM; in the experiment on MDA-MB-231 breast, greater than 59.8 µM; with OVCAR-5 ovarian, greater than 100 µM; in the experiment on UACC-257 melanoma, greater than 100 µM; in the experiment on SK-OV-3 ovarian, greater than 100 µM; with RPMI-8226 leukemia, greater than 100 µM. The TGI is greater than 100 µM with HCT-15 colon; 6.55 µM with SF-539 CNS; greater than 100 µM in the experiment with SNB-19 CNS; greater than 75.3 µM in the experiment on UO-31 renal; 9.05 µM with COLO 205 colon; 34.3 µM with RXF 393 renal. Also, the TGI was greater than 75.5 µM with TK-10 renal, 4 µM with HL-60(TB) leukemia, greater than 19.8 µM in the experiment with SR leukemia and greater than 100 µM with MCF7 breast.

The values above are taken from PubChem BioAssay (NCI).
